Assay results taken from patent US6869964B2, “Heterocyclicsulfonamide hepatitis C virus inhibitors” (Bristol-Myers Squibb Company, priority 2002, dated 2005).
pEC50, pIC50: −log10 of the molar value. Like-named read-outs stand apart in the source and are kept apart here.

What was measured:
[1] = target: T1, HCV NS3/4A protease complex (BMS strain) (Hepatitis C virus genotype 1a, UniProt P27958, C1454S); experiment: Recombinant HCV NS3/4A protease complex FRET peptide assay, BMS strain; assay type: biochemical, HCV genotype 1a
T1 construct: HCV NS3/4A protease complex (amino acids 1027 to 1711); inferred from pET21b vector and Ni-NTA purification; made in house; host or cells: Escherichia coli BL21 (DE3), pET21b
T1 sequence (P27958 1027-1657 C1454S): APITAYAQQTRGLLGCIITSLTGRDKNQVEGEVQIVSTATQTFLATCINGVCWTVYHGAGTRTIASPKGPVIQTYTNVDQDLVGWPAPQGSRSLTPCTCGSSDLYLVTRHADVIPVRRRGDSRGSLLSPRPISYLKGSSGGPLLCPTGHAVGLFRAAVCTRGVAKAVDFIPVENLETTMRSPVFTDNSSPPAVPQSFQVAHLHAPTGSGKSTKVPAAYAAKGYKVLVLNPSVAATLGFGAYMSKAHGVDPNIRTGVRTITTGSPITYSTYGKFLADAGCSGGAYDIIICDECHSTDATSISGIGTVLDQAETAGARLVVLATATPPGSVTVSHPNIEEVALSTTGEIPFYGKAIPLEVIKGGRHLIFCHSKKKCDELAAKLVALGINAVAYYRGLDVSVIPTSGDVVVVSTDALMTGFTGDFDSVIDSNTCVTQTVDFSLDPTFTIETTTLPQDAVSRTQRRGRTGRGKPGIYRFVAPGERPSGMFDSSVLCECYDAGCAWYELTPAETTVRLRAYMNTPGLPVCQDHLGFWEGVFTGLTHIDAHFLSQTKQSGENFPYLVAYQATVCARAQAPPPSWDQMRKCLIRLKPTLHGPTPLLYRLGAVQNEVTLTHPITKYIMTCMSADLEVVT
T1 sequence (P27958 1658-1711 partner, looked up, stated change not applied): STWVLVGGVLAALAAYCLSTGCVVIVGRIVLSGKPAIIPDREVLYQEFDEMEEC
Excerpt: Recombinant HCV NS3/4A Protease Complex FRET Peptide Assay
The purpose of this in vitro assay was to measure the inhibition of HCV NS3 protease complexes, derived from the BMS, H77C or J4l6S strains, as described below, by compounds of the present invention. This assay provides an indication of how effective compounds of the present invention would be in inhibiting HCV proteolytic activity.
Serum from an HCV-infected patient was obtained from Dr. T. Wright, San Francisco Hospital. An engineered full-length cDNA template of the HCV genome (BMS strain) was constructed from DNA fragments obtained by reverse transcription-PCR (RT-PCR) of serum RNA and using primers selected on the basis of homology between other genotype la strains. From the determination of the entire genome sequence, a genotype la was assigned to the HCV isolate according to the classification of Simmonds et al. (See P Simmonds, K A Rose, S Graham, S W Chan, F McOmish, B C Dow, E A Follett, P L Yap and H Marsden, J. Clin. Microbiol., 31(6), 1493-1503 (1993)). […] The infectious clones, H77C (1a genotype) and J4 L6S (1b genotype) were obtained from R. Purcell (NIH) and the sequences are published in Genbank (AAB67036, see Yanagi, M., Purcell, R. H., Emerson, S. U. and Bukh, J. Proc. Natl. Acad. Sci. U.S.A. 94(16),8738-8743 (1997); AF054247, see Yanagi, M., St Claire, M., Shapiro, M., Emerson, S. U., Purcell, R. H. and Bukh, J, Virology 244 (1), 161-172. (1998)).
The BMS, H77C and J4 L6S strains were used for production of recombinant NS3/4A protease complexes. DNA encoding the recombinant HCV NS3/4A protease complex (amino acids 1027 to 1711) for these strains were manipulated as described by P. Gallinari et al. (see Gallinari P, Paolini C, Brennan D, Nardi C, Steinkuhler C, De Francesco R. Biochemistry. 38(17):5620-32, (1999)). Briefly, a three-lysine solubilizing tail was added at the 3′-end of the NS4A coding region. The cysteine in the P1 position of the NS4A-NS4B cleavage site (amino acid 1711) was changed to a glycine to avoid the proteolytic cleavage of the lysine tag. Furthermore, a cysteine to serine mutation was introduced by PCR at amino acid position 1454 to prevent the autolytic cleavage in the NS3 helicase domain. The variant DNA fragment was cloned in the pET21b bacterial expression vector (Novagen) and the NS3/4A complex was expressed in Escherichia coli strain BL21 (DE3) (Invitrogen) following the protocol described by P. Gallinari et al. (see Gallinari P, Brennan D, Nardi C, Brunetti M, Tomei L, Steinkuhler C, De Francesco R., J Virol. 72(8):6758-69 (1998)) with modifications. Briefly, NS3/4A expression was induced with 0.5 mM Isopropyl β-D-1-thiogalactopyranoside (IPTG) for 22 hr at 20° C. A typical fermentation (10 L) yielded approximately 80 g of wet cell paste. The cells were resuspended in lysis buffer (10 mL/g) consisting of 25 mM N-(2-Hydroxyethyl)Piperazine-N′-(2-Ethane Sulfonic acid) (HEPES), pH7.5, 20% glycerol, 500 mM Sodium Chloride (NaCl), 0.5% Triton-X100, 1 ug/ml lysozyme, 5 mM Magnesium Chloride (MgCl2), 1 ug/ml DnaseI, 5 mM β-Mercaptoethanol (βME), Protease inhibitor—Ethylenediamine Tetraacetic acid (EDTA) free (Roche), homogenized and incubated for 20 mins at 4° C. The homogenate was sonicated and clarified by ultra-centrifugation at 235000 g for lhr at 4° C. Imidazole was added to the supernatant to a final concentration of 15 mM and the pH adjusted to 8.0. The crude protein extract was loaded on a Nickel—Nitrilotriacetic acid (Ni—NTA) column pre-equilibrated with buffer B (25 mM HEPES, pH8.0, 20% glycerol, 500 mM NaCl, 0.5% Triton-X100, 15 mM imidazole, 5 mM βME). The sample was loaded at a flow rate of 1 mL/min. The column was washed with 15 column volumes of buffer C (same as buffer B except with 0.2% Triton-X100). The protein was eluted with 5 column volumes of buffer D (same as buffer C except with 200 mM Imidazole). […]

[2] = system: HCV replicon in Huh7 cells; experiment: HCV replicon cell-based assay (FRET); parameters: species or system HCV strain 1B; settings: Hepatitis C virus
Excerpt: HCV Replicon Cell-based Assay
An HCV replicon whole cell system was established as described by Lohmann V, Korner F, Koch J, Herian U, Theilmann L, Bartenschlager R., Science 285(5424): 110-3 (1999). This system enabled us to evaluate the effects of our HCV Protease compounds on HICV RNA replication. Briefly, using the HCV strain 1B sequence described in the Lohmann paper (Assession number: AJ238799), an HCV cDNA was generated encoding the 5′ internal ribosome entry site (IRES), the neomycin resistance gene, the EMCV (encephalomyocarditis virus)-IRES and the HCV nonstructural proteins, NS3-NS5B, and 3′ non-translated region (NTR). In vitro transcripts of the cDNA were transfected into the human hepatoma cell line, Huh7. […] Resulting cell lines were characterized for positive and negative strand RNA production and protein production over time.
Huh7 cells, constitutively expressing the HCV replicon, were grown in Dulbecco's Modified Eagle Media (DMEM) containing 10% Fetal calf serum (FCS) and 1 mg/ml G418 (Gibco-BRL). Cells were seeded the night before (1.5×10^4 cells/well) in 96-well tissue-culture sterile plates. Compound and no compound controls were prepared in DMEM containing 4% FCS, 1:100 Penicillin/Streptomysin, 1:100 L-glutamine and 5% DMSO in the dilution plate (0.5% DMSO final concentration in the assay). Compound/DMSO mixes were added to the cells and incubated for 4 days at 37° C. After 4 days, plates were rinsed thoroughly with Phosphate-Buffered Saline (PBS) (3 times 150 μl). The cells were lysed with 25 μl of a lysis assay reagent containing the FRET peptide (RET S1, as described for the in vitro enzyme assay). The lysis assay reagent was made from 5× cell Luciferase cell culture lysis reagent(Promega #E153A) diluted to 1× with distilled water, NaCl added to 150 mM final, the FRET peptide diluted to 10 μM final from a 2 mM stock in 100% DMSO. The plate was then placed into the Cytofluor 4000 instrument which had been set to 340 nm excitation/490 emission, automatic mode for 21 cycles and the plate read in a kinetic mode. EC50 determinations were carried out as described for the IC50 determinations.

Compound: C=CC1C[C@]1(NC(=O)[C@@H]1C[C@@H](Oc2cc(-c3ccccc3)nc3cc(OC)ccc23)CN1C(=O)[C@@H](NC(=O)OC(C)(C)C)C(C)(C)C)C(=O)NS(=O)(=O)c1cccs1 (stereo in doubt) [Compound 1, (1-{4-(7-Methoxy-2-phenylquinolin-4-yloxy)-2-[1-(thiophene-2-sulfonylaminocarbonyl)-2-vinyl-cyclopropylcarbamoyl]-pyrrolidine-1-carbonyl}-2,2-dimethylpropyl)carbamic acid tert-butyl ester]
- pIC50 ([1]; BMS strain, read-out: IC50 against the NS3/4A BMS strain in the enzyme assay): 8.10
- pIC50 ([1]; NS3/4A BMS Strain, activity range, read-out: IC50 a, b, c (Activity Table)): > 7.00
- pEC50 ([2]; Huh-7, 96 h, Huh7 cells, 4 days, read-out: EC50 value in the replicon assay): 7.26
- pEC50 ([2]; Huh-7, replicon, activity range, read-out: EC50 a, b, c (Activity Table)): > 7.00
